Measured values taken from ChEMBL document CHEMBL1131751, “Design and synthesis of 2-[4-[4-(m-(ethylsulfonamido)-phenyl) piperazin-1-yl]butyl]-1,3-dioxoperhydropyrrolo[1,2-c]imidazole (EF-7412) using neural networks. A selective derivative with mixed 5-HT1A/D2 antagonist properties” (Bioorg Med Chem Lett, 1999).

Assays:
[1] = target: T1, 5-hydroxytryptamine receptor 1A (Mus musculus, UniProt Q64264); assay: Binding affinity towards 5-HT1A receptor
T1 sequence (Q64264 whole entry): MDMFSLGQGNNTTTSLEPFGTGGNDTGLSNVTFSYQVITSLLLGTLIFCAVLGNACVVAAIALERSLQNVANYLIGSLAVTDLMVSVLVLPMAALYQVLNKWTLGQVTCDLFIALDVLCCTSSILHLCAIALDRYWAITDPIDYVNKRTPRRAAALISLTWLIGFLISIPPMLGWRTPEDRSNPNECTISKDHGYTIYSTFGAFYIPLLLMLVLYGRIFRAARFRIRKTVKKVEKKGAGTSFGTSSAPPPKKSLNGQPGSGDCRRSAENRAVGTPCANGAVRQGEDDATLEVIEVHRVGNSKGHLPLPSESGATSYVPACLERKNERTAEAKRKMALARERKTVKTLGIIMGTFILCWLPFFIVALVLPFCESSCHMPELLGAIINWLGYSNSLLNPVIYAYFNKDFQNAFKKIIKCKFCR

[2] = target: T2, Alpha-1 adrenergic receptor (Mus musculus, UniProt P97714+P97717+P97718); assay: Binding affinity towards Alpha-1 adrenergic receptor; type: protein assay
T2 sequence (P97714 whole entry): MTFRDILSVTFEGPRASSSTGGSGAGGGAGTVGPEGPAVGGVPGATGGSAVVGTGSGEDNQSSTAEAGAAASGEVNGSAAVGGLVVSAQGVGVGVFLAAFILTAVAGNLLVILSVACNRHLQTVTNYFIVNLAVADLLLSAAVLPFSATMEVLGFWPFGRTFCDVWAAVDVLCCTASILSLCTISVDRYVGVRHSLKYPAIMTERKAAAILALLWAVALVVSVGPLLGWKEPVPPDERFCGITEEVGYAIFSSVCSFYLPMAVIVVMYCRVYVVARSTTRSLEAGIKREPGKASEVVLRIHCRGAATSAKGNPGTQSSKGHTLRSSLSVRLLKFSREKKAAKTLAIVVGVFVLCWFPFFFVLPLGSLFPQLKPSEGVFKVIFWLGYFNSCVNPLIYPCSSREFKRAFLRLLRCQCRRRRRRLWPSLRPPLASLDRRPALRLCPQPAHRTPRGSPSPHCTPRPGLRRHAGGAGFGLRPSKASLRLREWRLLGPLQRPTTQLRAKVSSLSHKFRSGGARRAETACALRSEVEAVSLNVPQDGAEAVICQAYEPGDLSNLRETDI
T2 sequence (P97717 whole entry): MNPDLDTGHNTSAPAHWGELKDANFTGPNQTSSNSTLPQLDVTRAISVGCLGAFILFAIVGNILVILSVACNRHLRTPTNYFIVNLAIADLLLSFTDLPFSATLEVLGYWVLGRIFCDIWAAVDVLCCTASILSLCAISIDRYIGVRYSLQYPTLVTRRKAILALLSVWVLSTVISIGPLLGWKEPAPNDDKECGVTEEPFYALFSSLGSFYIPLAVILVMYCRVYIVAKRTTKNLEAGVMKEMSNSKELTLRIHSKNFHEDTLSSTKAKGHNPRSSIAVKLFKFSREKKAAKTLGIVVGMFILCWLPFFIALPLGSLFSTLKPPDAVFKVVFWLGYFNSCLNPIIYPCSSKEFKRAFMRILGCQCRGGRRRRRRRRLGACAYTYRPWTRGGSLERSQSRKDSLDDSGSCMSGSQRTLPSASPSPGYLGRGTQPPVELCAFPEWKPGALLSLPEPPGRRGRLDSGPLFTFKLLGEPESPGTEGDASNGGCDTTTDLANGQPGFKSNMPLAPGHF
T2 sequence (P97718 whole entry): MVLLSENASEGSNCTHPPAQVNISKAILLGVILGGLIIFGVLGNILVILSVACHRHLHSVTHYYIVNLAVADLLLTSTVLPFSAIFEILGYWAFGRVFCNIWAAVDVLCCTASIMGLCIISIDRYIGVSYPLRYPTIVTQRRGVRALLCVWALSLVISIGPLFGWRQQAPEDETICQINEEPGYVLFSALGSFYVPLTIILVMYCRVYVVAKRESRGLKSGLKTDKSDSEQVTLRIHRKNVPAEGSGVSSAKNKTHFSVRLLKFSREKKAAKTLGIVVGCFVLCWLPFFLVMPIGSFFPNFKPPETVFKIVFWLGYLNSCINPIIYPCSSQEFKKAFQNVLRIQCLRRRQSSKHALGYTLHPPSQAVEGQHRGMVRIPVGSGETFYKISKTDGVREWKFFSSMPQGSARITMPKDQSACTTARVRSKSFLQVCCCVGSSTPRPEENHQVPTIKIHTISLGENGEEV

D(2) dopamine receptor = D(2) dopamine receptor (Mus musculus, UniProt P61168); assay: Binding affinity towards Dopamine receptor D2
D(2) dopamine receptor, sequence (P61168 whole entry): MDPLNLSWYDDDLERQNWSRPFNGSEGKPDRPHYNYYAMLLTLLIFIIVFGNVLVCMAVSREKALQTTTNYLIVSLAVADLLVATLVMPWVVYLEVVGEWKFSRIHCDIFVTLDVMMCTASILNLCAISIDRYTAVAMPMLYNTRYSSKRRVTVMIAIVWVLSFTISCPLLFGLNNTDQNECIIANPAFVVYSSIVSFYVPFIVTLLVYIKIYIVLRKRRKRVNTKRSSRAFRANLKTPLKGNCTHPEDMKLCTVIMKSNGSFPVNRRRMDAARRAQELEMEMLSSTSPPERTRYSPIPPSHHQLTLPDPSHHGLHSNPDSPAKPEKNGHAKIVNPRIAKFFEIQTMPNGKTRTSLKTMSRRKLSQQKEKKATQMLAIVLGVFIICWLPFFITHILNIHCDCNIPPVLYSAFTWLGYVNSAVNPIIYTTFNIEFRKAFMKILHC

For `CCS(=O)(=O)Nc1cccc(N2CCN(CCCCN3C(=O)C4CCCN4C3=O)CC2)c1` (stereo not drawn), the Ki [1] was 0.027 µM, the Ki [2] was > 1 µM and the Ki (D(2) dopamine receptor) was 0.022 µM.
